Measurements as given in patent US20120021967A1, “SYNTHETIC ANTIBODIES” (Arizona Board of Regents, A Body Corporate of the State Of …, priority 2008, published 2012).
Where a SMILES comes first, the peptide text is derived from it. Where no end group is shown, it is not given here.

Columns and labels:
TNF-α = TNF-α (Homo sapiens, UniProt P01375); assay: SPR (Biacore A100) of TNF1 lead and mutant peptides on captured TNF-α; assay type: binding; settings: for koff: kinetic fits of sensorgrams, read-out: off-rate koff
Source text: Scanning Mutagenesis of the TNF1 Lead Peptide. After lead identification, the next step in the AMPLI algorithm is characterization of point mutations in the lead heteropolymer. Using short peptides makes it chemically feasible to synthesize a significant fraction of the point-mutant space, which can then be screened for enhanced point mutations. For example, all possible point mutations in the 17 randomized positions using all 20 natural amino acids could be synthesized and screened within a single 384-well plate (323 total point-mutants). However, libraries containing all 20 natural amino acids are not required for affinity optimization of protein-protein interactions. A library of TNF1 point-mutants containing all substitutions of the amino acid set {Y, A, D, S, K, N, V, W} in each of the 17 randomized positions (132 unique point-mutants) was synthesized. Tyrosine (Y), alanine (A), aspartic acid (D) and serine (S) were selected because of their effectiveness in producing high affinity interactions when substituted into the complementary-determining regions (CDRs) of synthetic antibodies (Felouse, Proceedings of the National Academy of Sciences 101(34):12467, 2004), lysine (K) was selected to balance the charge in the substitution set, asparagine (N), valine (V) and tryptophan (W) were selected to span the hydropathicity range (Kyte J & Doolittle R F, Journal of Molecular Biology 157(1):105-132, 1982). […] This concentration was used to increase the high-end dynamic range for quantifying enhancing point mutations at the expense of low-end dynamic range for quantifying detrimental point mutations.
Point-mutant libraries were prepared in 96-well stock plates From the stock plate, peptides were diluted to 50 μM concentration in Biacore HBS-EP buffer (GE Healthcare, Piscataway, N.J.) containing 1 mg/ml carboxymethyl-dextran (Sigma-Aldrich, St. Louis, Mo.) to reduce non-specific binding to the CM-5 SPR chip surface. […] Spot 3 contained only immobilized neutravidin and served as a reference spot.
Using the prepared 96-well plates and Biacore A100 SPR instrument, four peptides were flowed separately, in parallel, through the four flow cells over all 4 TNF-α spots and the neutravidin reference spot, with a 60 second association phase and 300 second dissociation phase. SPR sensorgrams were recorded for each peptide response with all 4 TNF-α spots and the neutravidin reference spot across the four flow cells on the SPR chip. […]
Purified point-mutant affinities were measured on the Biacore A100 using SPR equilibrium binding response across a series of peptide concentrations on an SPR chip with TNF-α captured as described above. […]

transferrin [1] = target: T1, transferrin (Homo sapiens, UniProt P02787); assay: SPR (Biacore T100) steady state affinity of mRNA display clones on immobilized transferrin; assay type: binding; settings: for Kd: steady state affinity model, 32 to 0.0625 μM
Experimental: Five clones (see Table 15) were selected, synthesized and purified by HPLC for characterization by surface plasmon resonance (SPR) (T100 instrument from Biacore). Transferrin was immobilized using standard NHS/EDC immobilization chemistry according to the methods described in Frostell-Karlsson, A., Remaeus, A., Andersson, K., Borg, P., Hamalainen, M., and Karlsson, R. (2000) J. Med. Chem. 43, resulting in 9758 RU of immobilized protein. HPLC purified peptides were injected over the surface and sensograms were recorded at multiple concentrations (32, 16, 8, 4, 2, 1, 0.5, 0.25, 0.125. and 0.0625 μM). Affinity plots were generated for each peptide and fit using a steady state affinity model.

human α-thrombin = target: T2, human α-thrombin (Homo sapiens, UniProt P00734); assay: ELISA-type assay on thrombin-coated wells; assay type: binding; settings: read-out: Dissociation constant estimated from ELISA-type assay
T2 construct: human α-thrombin
Experimental: Binding to thrombin was evaluated in an ELISA-type assay. Wells of a 96 well plate were coated with 100 μL of 30 μg/mL human α-thrombin and incubated at 4C overnight. The plate was washed twice with DDI H2O and passivated with 3% BSA in 1×PBS buffer for 1 hour. The plate was shaken out and 50 μL of varying concentrations of analyte (DNA tile synbody, DNA tile with each aptamer with the other not present, and each aptamer alone, respectively) were incubated at RT for 1 hour. DNA tiles were biotin-modified at the 5′ end of one of the distal DNA strands 346 (see FIG. 26(a)). The plate was rinsed 10 times in 1×PBS and 50 μL of 1:1000 dilution of streptavidin-HRP in 0.1% BSA in 1×PBS was pipetted and incubated for 1 hour at RT. The plate was again rinsed and 50 μL of TMB was added and incubated at RT for 15 minutes. 50 μL of 0.5M HCl was added and the plate was read immediately. Results are shown in FIG. 27 for the DNA tile synbody 350; the DNA tile with Apt1 but not Apt2 present 352; the DNA tile with Apt2 but not Apt1 present 356; Apt1 alone 354; and Apt2 alone 358. Dissociation constant values estimated from this assay were about 1 nM for the DNA tile synbody, about 10 nM for Apt1 alone, and more than 1 μM for Apt2 alone.

transferrin [2] = target: T1, transferrin; assay: SPR characterization of TRF26 lead and point-mutant peptides against transferrin; assay type: binding
Source text: In this example, a small library of ˜300 variant peptides was synthesized in 96-well format. […] The lead peptide (TRF26, see Table 6) was selected as a moderate-affinity binder of the target protein transferrin. The library of variant peptides contained all possible point mutations of the lead peptide using the following set of amino acids {M,A,V,P,L,I,G,W,Y,F,S,T,N,Q,K,R,H,D,E}.
Relative affinities/specificities of the lead peptide and point-mutants were characterized using SPR as follows:
Peptide sample preparation. Lyophilized peptides were individually diluted in 96-well plates to approximately equal concentration (1 mg/ml) in 1×PBST buffer pH 7.4. Peptide sample purity was determined by MALDI-MS analysis of the diluted peptide samples.
SPR gold substrate preparation. Gold substrates used for SPR analysis were first modified with a monolayer of cysteamine by immersing the substrate in a 10 mM cysteamine/EtOH solution for 1 hour, thereby exposing a layer of primary amines just above the gold surface. After addition of the monolayer, the gold substrates were rinsed extensively with EtOH then further modified by immersing in a solution of 2 mM Sulfo-SMCC/PBS pH 7.4 for 1 hour, thereby exposing a surface-bound maleimide which can be used to covalently couple peptides to the gold substrate via the C-terminal cysteine.
Peptide spotting on gold substrate. Diluted peptide samples were spotted on the modified gold substrate using a commercial robotic spotter in an array format. The array contained ˜440 peptide spots (including replicates and blank reference spots), each spot having ˜200 um diameter. Spotted substrates were kept in a humidity chamber overnight to ensure complete reaction between the surface exposed maleimide and the C-terminal cysteine in the peptides. After ˜12-hours, the substrates were washed with PBST buffer to remove excess peptide not bound to the gold substrate. Finally, unreacted maleimide groups were quenched using a 2 mM β-mercaptoethanol/PBST solution thereby presenting a hydrophilic surface in regions not containing peptide.
Determination of target affinity using SPR. Gold substrates containing arrays of peptide variants and the lead peptide were loaded into a FlexChip SPR (Biacore) instrument. To ensure binding specificity, three injections of 0.2% BSA sample were flowed across the array using the FlexChip fluidics. The array was then washed with a continuous 1 mL/min flow of PBST buffer until the sensorgram reached a stable baseline. After reaching a baseline, the array was washed 2 additional minutes using PBST, then a 10 μM Transferrin/PBST sample was injected and continuously recycled over the array surface for 8 minutes. After the recycle the array was washed […] with continuous 1 mL/min PBST flow for 10 minutes. Sensorgrams were continuously recorded during the 2 minute prewash (to ensure baseline stability), 8 minute Transferrin sample recycle and post sample recycle wash.
Quantification of relative target affinities. Sensorgram values were taken from the stability region, that is the region ˜10 seconds into the post sample recycle wash. Sensorgram values at this point should allow identification of peptides that have both high levels of target binding and off-rates slower than the lead peptide. […] Data processing included identification of the mutated position at a particular SPR array spot as well as signal normalization relative to the lead peptide (lead peptide=1), enhanced binders have positive values and reduced binders have negative values.
Two TRF26 point-mutants (P6Y, H12F) were selected for further affinity characterization. The P6Y and H12F point-mutants have dissociation constants of 8.6±1.6 μM and 9.8±1.6 μM respectively. […] A TRF26 double mutant sequence containing the P6Y+H12F mutations was synthesized and characterized.

transferrin [3] = target: T1, transferrin; assay: SPR analysis of peptide pairs for binding to distinct sites on immobilized transferrin
Source text: The transferrin target was immobilized on a Biacore T100 SPR chip, and candidate polypeptides were applied in 1:1 mixtures in pairs and response data obtained, in accordance with the methods described in Example 4 above. As illustrated in FIGS. 12A-D, upon flowing candidate polypeptides over the immobilized target, ideally one polypeptide applied alone would bind to a first binding site on the target and produce a first characteristic SPR response level (FIG. 12A), the other polypeptide would bind to a second, distinct binding site on the target, producing a second characteristic response level (FIG. 12B), and a mixture of the two polypeptides together (at the same concentrations as before) would produce a response level approximating the sum of the response levels produced by each polypeptide alone, as the polypeptides bind to distinct binding sites (FIG. 12C).

[4] = Table 13A, lead and point-mutants
[5] = observed, read-out: dissociation constant

Chain of TNF-α (P01375 77-233 limits assumed, species assumed): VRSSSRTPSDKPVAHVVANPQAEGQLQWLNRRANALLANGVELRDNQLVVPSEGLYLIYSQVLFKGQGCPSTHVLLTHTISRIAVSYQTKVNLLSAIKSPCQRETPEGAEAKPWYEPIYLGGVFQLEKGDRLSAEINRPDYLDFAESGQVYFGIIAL
T1 sequence (P02787 20-698): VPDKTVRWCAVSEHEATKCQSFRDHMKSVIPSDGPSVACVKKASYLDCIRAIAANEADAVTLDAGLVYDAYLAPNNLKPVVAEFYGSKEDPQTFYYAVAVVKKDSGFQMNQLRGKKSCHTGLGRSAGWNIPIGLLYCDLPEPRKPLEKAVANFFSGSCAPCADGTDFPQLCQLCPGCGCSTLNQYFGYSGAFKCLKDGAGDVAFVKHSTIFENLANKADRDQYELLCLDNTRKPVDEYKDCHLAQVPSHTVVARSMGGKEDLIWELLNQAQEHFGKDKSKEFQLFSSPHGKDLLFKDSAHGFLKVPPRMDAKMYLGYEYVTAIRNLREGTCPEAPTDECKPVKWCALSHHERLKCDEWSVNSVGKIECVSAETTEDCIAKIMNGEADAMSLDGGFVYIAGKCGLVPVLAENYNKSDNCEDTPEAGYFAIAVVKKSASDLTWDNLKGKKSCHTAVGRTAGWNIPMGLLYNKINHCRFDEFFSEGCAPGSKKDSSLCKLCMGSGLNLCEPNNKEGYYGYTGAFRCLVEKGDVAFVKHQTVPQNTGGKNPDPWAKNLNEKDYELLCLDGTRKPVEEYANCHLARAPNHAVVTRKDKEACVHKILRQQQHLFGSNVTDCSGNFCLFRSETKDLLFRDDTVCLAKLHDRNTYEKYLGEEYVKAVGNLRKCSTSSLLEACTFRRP

FERSYLKMPWKFLQSRQGSC [TNF1-opt]
koff (TNF-α): 0.2 ± 0.02 s⁻¹

AHKVVPQRQMRHAYSRYGSC [TBPM023]
affinity improvement in comparison to the original peptide TRF26 (transferrin [1]): more than 10 fold

5′-GGTTGGTGTGGTTGG-3′ [Apt2 alone]
Kd (human α-thrombin): > 1 µM

FERDPLMMPWSFLQSRQGSC [TNF1]
Binding ΔG (TNF-α; [4]): -5.21 ± 0.07 kcal/mol | Kd (TNF-α; [4]): 160 ± 19 µM | koff (TNF-α): 1.6 ± 0.5 s⁻¹

C[C@H](N)C(=O)N[C@H](C(=O)N[C@@H](CCCNC(=N)N)C(=O)N[C@@H](Cc1c[nH]c2ccccc12)C(=O)N[C@@H](CS)C(=O)N1CCC[C@H]1C(=O)N[C@@H](CO)C(=O)N[C@@H](C)C(=O)N[C@@H](CCCNC(=N)N)C(=O)N1CCC[C@H]1C(=O)N[C@@H](C)C(=O)N[C@H](C(=O)N1CCC[C@H]1C(=O)N[C@H](C(=O)N[C@H](C(=O)N[C@@H](C)C(=O)N[C@H](C(=O)NCC(=O)N[C@@H](CO)C(=O)N[C@@H](CS)C(=O)O)[C@@H](C)O)[C@@H](C)O)[C@@H](C)O)[C@@H](C)O)[C@@H](C)O [TBPM021] (H-ATRWCPSARPATPTTATGSC-OH)
Kd (transferrin [1]): > 300 µM

AHKVVYQRQIRFAYNRYGSC [P6Y + H12F]
Observed Binding ΔG (transferrin [2]; Table 13D): -8.68 ± 0.15 kcal/mol | Observed Kd Fold-Change Relative to Lead (transferrin [2]; Table 13D): 190 ± 57 | Predicted Binding ΔG (transferrin [2]; Table 13D, energetic additivity): -8.22 ± 0.18 kcal/mol | Kd (transferrin [2]; [5]): 0.5 ± 0.1 µM

AHKVVPQRQIRFAYNRYGSC [H12F]
Binding ΔG (transferrin [2]; Table 13C): -6.85 ± 0.10 kcal/mol | Component Binding ΔG Contribution (transferrin [2]; Table 13C): -1.29 ± 0.14 kcal/mol | Kd Fold-Change Relative to Lead (transferrin [2]; Table 13C): 8.8 ± 2.0 | Kd (transferrin [2]; [5]): 9.8 ± 1.6 µM

AHKVVPQRQIRHAYNRYGSC [TRF26]
Binding ΔG (transferrin [2]; Table 13C): -5.56 ± 0.10 kcal/mol | Kd (transferrin [2]; Table 13C, read-out: Kd): 85 ± 14 µM | binding sites on transferrin (pairs applied in 1:1 mixtures) (transferrin [3]): bind distinct sites on transferrin

5′-AGTCCGTGGTAGGGCAGGTTGGGGTGACT-3 [Apt1 alone]
Kd (human α-thrombin): ~0.01 µM

AHKVVYQRQIRHAYNRYGSC [P6Y]
Binding ΔG (transferrin [2]; Table 13C): -6.93 ± 0.11 kcal/mol | Component Binding ΔG Contribution (transferrin [2]; Table 13C): -1.37 ± 0.15 kcal/mol | Kd Fold-Change Relative to Lead (transferrin [2]; Table 13C): 10 ± 2.5 | Kd (transferrin [2]; [5]): 8.6 ± 1.6 µM

CC(C)C[C@H](NC(=O)[C@H](CCCNC(=N)N)NC(=O)[C@@H]1CCCN1C(=O)[C@@H]1CCCN1C(=O)[C@H](CC(=O)O)NC(=O)[C@@H]1CCCN1C(=O)[C@H](C)NC(=O)[C@@H]1CCCN1C(=O)[C@H](CS)NC(=O)[C@H](Cc1c[nH]c2ccccc12)NC(=O)CNC(=O)[C@@H](NC(=O)[C@@H]1CCCN1)[C@@H](C)O)C(=O)N[C@@H](Cc1c[nH]cn1)C(=O)N1CCC[C@H]1C(=O)N[C@@H](CC(C)C)C(=O)N[C@@H](Cc1c[nH]cn1)C(=O)NCC(=O)N[C@@H](CO)C(=O)N[C@@H](CS)C(=O)O [TBPM003] (H-PTGWCPAPDPPRLHPLHGSC-OH)
Kd (transferrin [1]): > 300 µM
